Measurements as given in article PMC9354243, “The Role of Tryptophan in π Interactions in Proteins: An Experimental Approach” (Journal of the American Chemical Society, 2022).

Tests used:
LmrR variants = assay: SPR of the LmrR-Dau interaction at 10 and 25 °C, all LmrR variants; assay type: binding, Lactococcus lactis
Procedure: The thermodynamics of the LmrR–Dau interaction was recently reported to be mostly entropy driven.[21] To investigate this point in more detail the temperature dependence of the LmrR–Dau interaction was studied by surface plasmon resonance (SPR) experiments at 10 and 25 °C. […] The average ΔΔG from 6 LmrR variants is around 0.1 kJ/mol. These values imply that the temperature effects on the ΔGs are negligible, which would be in line with a low contribution of entropic factors to the Dau–LmrR interaction.
RibU. […]
MALDI-TOF. […] Spots were measured using a Voyager DE-PRO MALDI-TOF (time of flight) instrument (Applied Biosystems). The incorporation efficiency of Trp analog was calculated after measuring the peak areas of the peptide conta ining either Trp or Trp analog.
Binding assays - surface plasmon resonance (SPR). LmrR and mutants were immobilized on a CM5 sensor chip and binding of drugs was monitored using a BIACORE3000 system. The binding responses of Dau and RBF to LmrR were measured in triplicate at both 25 °C and 10 °C, in HBS-EP running buffer (10 mM HEPES, pH 7.4, 150 mM NaCl, 50 µM EDTA, and 0.005% surfactant P-20). The binding responses were corrected by subtracting the response measured in the control lane, to which a […]

RibU W68Y mutant = system: RibU W68Y mutant; design: method as in PMID 17289680; details: W68Y mutant versus RibU; cited from earlier work

Structure (SMILES) | Fold increase of binding affinity at lower temperature (LmrR variants; 10 °C versus 25 °C, all LmrR variants) | Average ΔΔG (ΔG10 °C – ΔG25 °C) (LmrR variants; average from 6 LmrR variants) | Fold drop of RBF binding affinity (RibU W68Y mutant) [fold]
COc1cccc2c1C(=O)c1c(O)c3c(c(O)c1C2=O)C[C@@](O)(C(C)=O)C[C@@H]3O[C@H]1C[C@H](N)[C@H](O)[C@H](C)O1 [Dau, Daunomycin] | 1.4–3.5 fold | around 0.1 kJ/mol | –
Cc1cc2nc3c(=O)[nH]c(=O)nc-3n(C[C@H](O)[C@H](O)[C@H](O)CO)c2cc1C [RBF, riboflavin] | – | – | ~100
